# Results from US20230219969A1 (priority 2020, published 2023).
# Read-outs that look alike come from different tables or passages of the source.
# How the values were obtained:
# [1] = system: 5HT2A; format: cell-based; conditions: result in words
# [2] = target: T1, 5HT2A (Homo sapiens, UniProt P28223); assay: Serotonin 5-HT2A in vitro radioligand binding competition assay ([3H]-DOI); set-up: purchased Epics Therapeutics S.A. (Belgium) FAST-0505B
# Protocol: Serotonin 5-HT2A In Vitro Radioligand Binding Competition Assay. The 5-HT2A radioligand binding competition assay was performed at Epics Therapeutics S.A. (Belgium, FAST-0505B) using conventional methods. Briefly, competition binding is performed in duplicate in the wells of a 96 well plate (Master Block, Greiner, 786201) containing binding buffer (optimized for each receptor), membrane extracts (amount of protein/well optimized for each receptor), radiotracer [^3H]-DOI (final concentration optimized for each receptor) and test compound. Nonspecific binding is determined by co-incubation with 200-fold excess of cold competitor. The samples are incubated in a final volume of 0.1 ml at a temperature and for a duration optimized for each receptor and then filtered over filter plates. Filters are washed six times with 0.5 ml of ice-cold washing buffer (optimized for each receptor) and 50 μl of Microscint 20 (Packard) are added in each well. The plates are incubated 15 min on an orbital shaker and then counted with a TopCount™ for 1 min/well.
# (§1) The compounds provided herein were tested in the Serotonin 5-HT2A and 5-HT2C in vitro radioligand binding and cellular IPOne agonism assays. The binding and agonism functional potencies of several compound provided herein compounds (as indicated by their IC50s or EC50s) are shown in Table 11.
# [3] = target: T1, 5HT2A; assay: Serotonin 5-HT2A in vitro cellular IPOne agonism assay; format: cell-based; set-up: host or cells: CHO-K1
# Protocol: Serotonin 5-HT2A In Vitro Cellular IPOne Agonism Assay. The 5-HT2A IPOne HTRF assay was performed at Epics Therapeutics S.A. (Belgium, FAST-0505I) using conventional methods. Briefly, CHO-K1 cells expressing human recombinant 5-HT2A receptor grown to mid-log phase in culture media without antibiotics were detached with PBS-EDTA, centrifuged, and resuspended in medium without antibiotics buffer. 20,000 cells are distributed in a 96 well plate and incubated overnight at 37° C. with 5% CO2.
# For agonist testing, the medium is removed and 20 μl of assay buffer plus 20 μl of test compound or reference agonist are added in each well. The plate is incubated for 60 min. at 37° C. with 5% CO2.
# After addition of the lysis buffer containing IP1-d2 and anti-IP1 cryptate detection reagents, plates are incubated 1-hour at room temperature, and fluorescence ratios are measured according to the manufacturer specification, with the HTRF kit.
# as §1
# [4] = system: Rat cortical neurons; assay: Neurite Outgrowth in Primary Neuronal Cultures Assay (Procedure B); format: cell-based; set-up: key: A: Statistically significant mean increase as a percent of DMSO control at 10 μM or less; B: No statistically significant mean increase as a percent of DMSO control at 10 μM or less; conditions: 72 h, percent of DMSO control at 10 μM or less
# Source text: Neurite Outgrowth in Primary Neuronal Cultures Assay (Procedure B). Changes in the pattern of neurite outgrowth have been implicated in psychiatric and neurodegenerative disorders as well as traumatic injuries. The discovery of new compounds that can positively affect neuritogenesis are important for developing new therapeutics for neurological diseases. Measurement of neurite outgrowth of rat cortical neurons using an automated image-based assay was used to determine the neuroplastic effects of the compounds of the present invention. The neurite outgrowth assay was performed at Neurofit SAS (France) as described below.
# Pregnant Wistar rats (Janvier; France) were used for the study. They were delivered 6 days before their use. Upon arrival at Neurofit animal facility, they were housed one per cage and maintained in a room with controlled temperature (21-22° C.) and a reversed light-dark cycle (12 h/12 h; lights on: 17:30-05:30; lights off: 05:30-17:30) with food and water available ad libitum.
# Female Wistar rats of 17 days gestation were killed by cervical dislocation and the fetuses were removed from the uterus. Their brains were placed in ice-cold medium of Leibovitz (L15, Gibco, Fisher bioblock, France). Cortices were dissected and meninges were carefully removed. The cortical neurons were dissociated by trypsinization for 30 min at 37° C. (trypsin-EDTA, Gibco) in presence of 0.1 mg/ml DNAse I (Roche, France). The reaction was stopped by addition of Dulbecco's Modified Eagle Medium (DMEM; Gibco) with 10% of fetal bovine serum (FBS; Gibco). The suspension was triturated with a 10-ml pipette and using a needle syringe 21G and centrifuged at 350×g for 10 min at room temperature. The pellet of dissociated cells was resuspended in a medium consisting of Neurobasal (Gibco) supplemented with 2% B27 supplement (Gibco), 0.5 mM L-Glutamine (Gibco), an antibiotic-antimicotic mixture. Viable cells were counted in a Neubauer cytometer using the trypan blue exclusion test (Sigma). Cells were seeded at a density of 10000 cells per well in 96-well plate (Costar) precoated with poly-L-lysine. Test compound at different concentrations were added to the cultures. Donepezil (positive control) was tested at 250 nM.
# After 72 h (3 days) of plating, cultures were fixed with paraformaldehyde in PBS (4%, Sigma) for 30 min at 4° C. Then, cells were successively permeabilized with 0.1% Triton X100 for 30 min, saturated with PBS containing 3% of BSA and were incubated 1 h with anti-beta III tubulin antibody (Sigma) at 1/10 000 in PBS containing 0.5% of BSA. Cells were washed three times with PBS containing 0.5% of BSA, and they were incubated 1 h with goat anti-mouse antibody coupled with AF488 (Invitrogen A11001) diluted at 1/1000 in PBS containing 0.5% of BSA. Finally, nuclei were staining with DAPI 1 mg/ml at 1/1000 in PBS containing 0.5% of BSA. After rinsing with PBS, the plate was filmed and neurite networks were examined and analyzed using High-Content Screening (CellInsight, Thermo Scientific). The average number of neurites per neuron and the average total length of neurites per neuron were the main parameters analyzed. Analysis of data was performed using analysis of variance (ANOVA). The Fisher's Protected Least Significant Difference test was used for multiple comparisons. A p value<0.05 was considered significant. The software used is StatView 5.0 from SAS Institut.
# In some embodiments, a compound of the present invention increases the pattern of neurite outgrowth. In some embodiments, a compound of the present invention increases neurite average length compared to a control. In some embodiments, a compound of the present invention increases neurite branch points compared to a control.
# [5] = [3H]-DOI competition, membrane extracts, read-out: 5-HT2A Radioligand Binding Activity
# [6] = CHO-K1 cells, IPOne HTRF, read-out: 5-HT2A IPOne Agonism Activity
# T1 sequence (P28223 whole entry): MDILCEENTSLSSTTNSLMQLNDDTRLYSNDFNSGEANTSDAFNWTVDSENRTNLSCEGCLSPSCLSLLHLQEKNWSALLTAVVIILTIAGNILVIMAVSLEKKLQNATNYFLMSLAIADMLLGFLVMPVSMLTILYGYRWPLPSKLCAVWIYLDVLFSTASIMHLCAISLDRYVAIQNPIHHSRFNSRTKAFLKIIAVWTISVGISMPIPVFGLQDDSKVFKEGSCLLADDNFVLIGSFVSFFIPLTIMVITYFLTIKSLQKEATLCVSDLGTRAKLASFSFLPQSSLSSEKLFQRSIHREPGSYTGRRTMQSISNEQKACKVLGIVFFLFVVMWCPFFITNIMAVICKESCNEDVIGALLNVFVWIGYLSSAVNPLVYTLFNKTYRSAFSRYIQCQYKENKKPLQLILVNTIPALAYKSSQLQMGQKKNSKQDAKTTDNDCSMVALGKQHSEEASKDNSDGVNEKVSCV
Compound,activation of 5HT2A sensor assay in agonist mode [1],"IC50 [2, 5]","EC50 [3, 6]",Increase in Neurite Length [4],Increase in Neurite Number [4],IC50 [2],EC50 [3]
O=C(c1ccc(F)cc1)C1CCN(CCn2c(=O)[nH]c3ccccc3c2=O)CC1 [Ketanserin],do not activate the 5HT2A sensor assay in agonist mode,,,,,,
COc1cc(CC(C)N)c(OC)cc1I (stereo not shown) [DOI],activate the 5HT2A sensor assay in agonist mode,,,,,,
"COc1ccc2c(ccn2C[C@@H](C)N)n1 [Example 28, (R)-1-(5-methoxy-1H-pyrrolo[3,2-b]pyridin-1-yl)propan-2-amine]",,> 10 µM,> 10 µM,A,B,,
"C[C@H](Cn1ccc2cnccc21)N(C)C [Example 39, (R)—N,N-dimethyl-1-(1H-pyrrolo[3,2-c]pyridin-1-yl)propan-2-amine]",,> 10 µM,> 10 µM,B,B,,
"COc1ccc2c(ccn2CC2(N(C)C)CC2)c1 [Example 2, 1-((5-methoxy-1H-indol-1-yl)methyl)-N,N-dimethylcyclopropan-1-amine]",,> 10 µM,> 10 µM,B,B,,
"COc1cc2ccn(C[C@@H](C)N(C)C)c2cn1 [Example 33, (R)-1-(5-methoxy-1H-pyrrolo[2,3-c]pyridin-1-yl)-N,N-dimethylpropan-2-amine]",,> 10 µM,> 10 µM,A,B,,
"CN(C)CCc1c[nH]c2ccccc12 [DMT, N,N-dimethyltryptamine]",activate the 5HT2A sensor assay in agonist mode,,,,,,
"COc1cnc2c(ccn2C[C@@H](C)N(C)C)c1 [Example 36, (R)-1-(5-methoxy-1H-pyrrolo[2,3-b]pyridin-1-yl)-N,N-dimethylpropan-2-amine]",,> 10 µM,> 10 µM,B,B,,
"COc1ccc2c(ccn2[C@H]2C[C@H](N(C)C)C2)c1 [Example 25, (1r,3r)-3-(5-methoxy-1H-indol-1-yl)-N,N-dimethylcyclobutan-1-amine]",,> 10 µM,> 10 µM,A,B,,
CCN(CC)C(=O)[C@@H]1C=C2c3cccc4[nH]c(Br)c(c34)C[C@H]2N(C)C1 [BOL148],do not activate the 5HT2A sensor assay in agonist mode,,,,,,
CCN(CC)C(=O)[C@@H]1C=C2c3cccc4[nH]cc(c34)C[C@H]2N(C)C1 [LSD],activate the 5HT2A sensor assay in agonist mode,,,,,,
CN[C@H](C)Cc1ccc2c(c1)OCO2 [R-MDMA],do not activate the 5HT2A sensor assay in agonist mode,,,,,,
"COc1ccc2c(c1)CCCN2CCN(C)C [Example 9, 2-(6-methoxy-3,4-dihydroquinolin-1(2H)-yl)-N,N-dimethylethan-1-amine]",,0.101 to 1 µM,> 10 µM,B,B,,
"C[C@H](Cn1ccc2cncnc21)N(C)C [Example 27, (R)—N,N-dimethyl-1-(7H-pyrrolo[2,3-d]pyrimidin-7-yl)propan-2-amine]",,> 10 µM,> 10 µM,A,B,,
"COc1ccc2c(ccn2[C@H]2C[C@@H](N(C)C)C2)c1 [Example 24, (1s,3s)-3-(5-methoxy-1H-indol-1-yl)-N,N-dimethylcyclobutan-1-amine]",,> 10 µM,> 10 µM,A,B,,
CNC(C)Cc1ccc2c(c1)OCO2 [L-MDMA],do not activate the 5HT2A sensor assay in agonist mode,,,,,,
"COc1ccc2c(ccn2C(=O)CN(C)C)c1 [Example 45, 2-(dimethylamino)-1-(5-methoxy-1H-indol-1-yl)ethan-1-one]",,> 10 µM,> 10 µM,B,B,,
"COc1ccc2c(ccn2C[C@@H](C)N(C)C)n1 [Example 30, (R)-1-(5-methoxy-1H-pyrrolo[3,2-b]pyridin-1-yl)-N,N-dimethylpropan-2-amine]",,> 10 µM,> 10 µM,A,A,,
CCN(CC)CCc1c[nH]c2cc(F)ccc12 [Example 6-F-DET],do not activate the 5HT2A sensor assay in agonist mode,,,,,,
"COc1ccc2c(ccn2CC(C)(C)N(C)C)c1 [Example 1, 1-(5-methoxy-1H-indol-1-yl)-N,N,2-trimethylpropan-2-amine]",,> 10 µM,> 10 µM,A,A,,
"COc1ccc2c(ccn2C(=O)[C@@H](C)N(C)C)c1 [Example 47, (R)-2-(dimethylamino)-1-(5-methoxy-1H-indol-1-yl)propan-1-one]",,,,B,B,> 10 µM,> 10 µM
"COc1cc2ccn(C[C@@H](C)N)c2cn1 [Example 31, (R)-1-(5-methoxy-1H-pyrrolo[2,3-c]pyridin-1-yl)propan-2-amine]",,1 to 10 µM,1 to 10 µM,B,B,,
